The values that follow come from ChEMBL document CHEMBL5528064, “Invention of MK-7845, a SARS-CoV-2 3CL Protease Inhibitor Employing a Novel Difluorinated Glutamine Mimic” (J Med Chem, 2024).

The structures appear in SMILES notation.

In assay [1] the test system is SARS-CoV-2. The experiment in a line: Antiviral activity against replicon RNA harboring SARS-CoV-2 infected in human A549 cells assessed as inhibition of viral growth measured 40 hrs post treatment. In kind it is functional, organism-based. Conditions: Severe acute respiratory syndrome coronavirus 2, A549, 40 h.
Assay [2] concerns SARS-CoV-2. The experiment in a line: Antiviral activity against replicon RNA harboring SARS-CoV-2 infected in human A549 cells assessed as inhibition of viral growth. In kind it is functional, organism-based. The note with it: Severe acute respiratory syndrome coronavirus 2, A549. For orientation: Replicon systems follow genome replication, usually without infectious particles.

Assay [3] in a line: Inhibition of SARS-CoV-2 Omicron 3CLpro P132H mutant expressed in Escherichia coli (DE3) competent cells using CP488-ESATLQSGLRKAK-(CPQ2)-NH2 as substrate preincubated for 30 mins followed by substrate addition and measured after 4 hrs by FRET assay. More on the design: species or system Severe acute respiratory syndrome coronavirus 2.
The subject of assay [4] is SARS-CoV-2. The experiment in a line: Antiviral activity against SARS-CoV-2 Omicron B.1.1.529 harboring 3CLpro R346K mutant infected in human A549-hACE2-TMPRSS2 cells assessed as inhibition of virus induced cytopathic effect incubated for 72 hrs by celltiter glo assay. Format: functional, organism-based, Severe acute respiratory syndrome coronavirus 2. A general note: Damage to the host cells serves as the signal in cytopathic effect assays.

A word on the IC50: it is the midpoint of a concentration-inhibition curve. With `COC(=O)N[C@H](C(=O)N1C[C@H]2[C@@H]([C@H]1C(=O)N[C@@H](CCC(C)(F)F)C(=O)C(=O)NC1CC1)C21CCOCC1)C(C)(C)C`, the IC50 in the assay with SARS-CoV-2 [1] was determined as 32 nM.

On to `CC(C)(C)NC(=O)N[C@H](C(=O)N1C[C@H]2[C@@H]([C@H]1C(=O)N[C@@H](C[C@@H]1CCNC1=O)C(=O)C(N)=O)C2(C)C)C(C)(C)C`, for which the IC50 with SARS-CoV-2 [2] worked out at 7500 nM.

`COC(=O)N[C@H](C(=O)N1CCC2(CC2)C[C@H]1C(=O)N[C@@H](CCC(C)(F)F)C(=O)C(=O)NC1CC1)C(C)(C)C`: the IC50 in the assay with SARS-CoV-2 [1] was 20 nM.

Take `COC(=O)N[C@H](C(=O)N1CC2(C[C@H]1C(=O)N[C@@H](CCC(C)(F)F)C(=O)C(=O)NC1CC1)CC2(F)F)C(C)(C)C` (stereo not given in full): the IC50 in the assay on SARS-CoV-2 [1] worked out at 33 nM.

`CNC(=O)C(=O)[C@H](CCC(C)(F)F)NC(=O)[C@@H]1C[C@H](C(F)(F)F)CCN1C(=O)[C@@H](NC(=O)OC)C(C)(C)C`: the IC50 with SARS-CoV-2 [1] came out at 12 nM.

Turning to `COC(=O)N[C@H](C(=O)N1CC[C@@H](C(F)(F)F)C[C@H]1C(=O)N[C@@H](CCC(C)(F)F)C(=O)C(=O)NC1CC1)C(C)(C)C`, in the assay on SARS-CoV-2 [1], the IC50 came to 19 nM.

`COC(=O)N[C@H](C(=O)N1C[C@@H]2CCC[C@@H]2[C@H]1C(=O)N[C@@H](CCC(C)(F)F)C(=O)C(=O)NC1CC1)C(C)(C)C`: the IC50 with SARS-CoV-2 [1] stood at 18 nM.

For the compound `CNC(=O)C(=O)[C@H](CCC(C)(F)F)NC(=O)[C@@H]1[C@H]2CCC[C@H]2CN1C(=O)[C@@H](NC(=O)OC)C(C)(C)C`, the results for the 50% inhibitory concentration (IC50) (with SARS-CoV-2 [1]; in assay [3]; with SARS-CoV-2 [4]) were 15 nM, 15 nM and 215 nM, respectively.
